For the assay, the target named is T1, PASK (Homo sapiens, UniProt Q96RG2).
T1 construct: purchased Thermo Fisher Scientific (Life Technologies) SelectScreen
Put plainly: SelectScreen Z'LYTE. In kind it is biochemical. The method, boiled down:
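NU5455 was profiled across the SelectScreen Broad panel of kinase activity and binding assays. Z'LYTE reactions such as CSF1R ran at apparent Km ATP, while the Adapta CAMK1 assay used ATP listed as 10. Values are given as percent.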

T1 sequence (Q96RG2 whole entry): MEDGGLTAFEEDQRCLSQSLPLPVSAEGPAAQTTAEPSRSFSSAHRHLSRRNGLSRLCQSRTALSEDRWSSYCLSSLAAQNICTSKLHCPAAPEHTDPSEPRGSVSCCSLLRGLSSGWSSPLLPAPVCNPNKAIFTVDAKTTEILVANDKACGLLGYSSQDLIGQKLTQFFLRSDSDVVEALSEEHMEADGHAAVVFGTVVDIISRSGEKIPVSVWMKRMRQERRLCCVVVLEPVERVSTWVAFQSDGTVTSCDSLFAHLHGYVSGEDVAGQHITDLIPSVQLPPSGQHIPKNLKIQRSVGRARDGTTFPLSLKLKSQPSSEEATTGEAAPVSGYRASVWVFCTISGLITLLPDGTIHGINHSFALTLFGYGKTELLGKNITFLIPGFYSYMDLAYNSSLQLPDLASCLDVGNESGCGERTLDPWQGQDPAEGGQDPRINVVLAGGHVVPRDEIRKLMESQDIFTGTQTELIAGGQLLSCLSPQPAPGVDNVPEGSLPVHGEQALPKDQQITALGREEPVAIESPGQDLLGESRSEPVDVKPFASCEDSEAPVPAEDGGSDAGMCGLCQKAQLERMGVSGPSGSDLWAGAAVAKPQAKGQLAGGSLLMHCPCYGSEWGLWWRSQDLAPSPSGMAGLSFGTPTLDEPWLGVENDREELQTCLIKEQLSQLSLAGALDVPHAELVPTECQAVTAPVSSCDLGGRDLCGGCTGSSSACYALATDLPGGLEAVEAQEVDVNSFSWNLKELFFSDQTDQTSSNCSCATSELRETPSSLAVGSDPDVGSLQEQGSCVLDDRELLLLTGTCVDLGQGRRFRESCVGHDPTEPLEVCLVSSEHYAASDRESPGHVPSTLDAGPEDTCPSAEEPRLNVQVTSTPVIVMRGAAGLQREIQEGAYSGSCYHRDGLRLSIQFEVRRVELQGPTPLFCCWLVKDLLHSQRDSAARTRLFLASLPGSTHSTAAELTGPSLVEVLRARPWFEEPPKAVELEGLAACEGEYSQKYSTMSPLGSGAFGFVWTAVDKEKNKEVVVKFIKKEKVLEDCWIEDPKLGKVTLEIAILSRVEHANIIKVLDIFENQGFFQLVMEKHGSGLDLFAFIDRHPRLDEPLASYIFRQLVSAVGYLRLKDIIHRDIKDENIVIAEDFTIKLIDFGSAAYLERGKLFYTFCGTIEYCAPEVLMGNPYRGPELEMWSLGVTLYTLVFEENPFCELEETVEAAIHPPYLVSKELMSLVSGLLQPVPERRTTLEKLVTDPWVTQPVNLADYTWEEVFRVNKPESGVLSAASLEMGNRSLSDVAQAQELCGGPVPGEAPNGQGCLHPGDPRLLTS

In turn, `CN(C(=O)CN1CCOCC1)c1ccc2sc3c(-c4cccc5c(=O)cc(N6CC7CCC(C6)O7)oc45)cccc3c2c1` [NU5455] yielded an inhibition at 1 µM of 2.3%.

One may read the inhibition as the drop in the measured response relative to a control, in per cent. Low values mean little suppression, high ones strong suppression.
